Patent publication US11912686B2 (Gilead Sciences, Inc., priority 2020, dated 2024)

What follows are molecules tested against human LPAR1 (Homo sapiens (Human), UniProt Q92633) (assay: LPAR1 intracellular calcium mobilization assay (antagonist mode, FLIPR)). Conditions: CHO-K1 EDG2 cells expressing human LPAR1, LPA 18:2 at EC80 (100 nM), test compound 0.5 nM to 10 μM.
Assay type: cell-based

Chain of human LPAR1 (Q92633 whole entry): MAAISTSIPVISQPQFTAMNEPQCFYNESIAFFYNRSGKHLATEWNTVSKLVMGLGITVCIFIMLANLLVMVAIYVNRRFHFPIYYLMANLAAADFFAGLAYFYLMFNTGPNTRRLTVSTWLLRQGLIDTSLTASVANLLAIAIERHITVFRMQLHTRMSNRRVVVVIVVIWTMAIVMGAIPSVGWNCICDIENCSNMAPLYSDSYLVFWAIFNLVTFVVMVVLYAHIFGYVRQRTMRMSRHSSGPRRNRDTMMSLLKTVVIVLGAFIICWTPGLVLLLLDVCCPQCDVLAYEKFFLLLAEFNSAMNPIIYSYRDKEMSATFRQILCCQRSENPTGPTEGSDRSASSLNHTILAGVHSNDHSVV

SMILES | EC50 [nM]
C[C@@H](OC(=O)Nc1c(-c2ccc(NC=O)cn2)nnn1C)c1cccnc1Cl [Compound 16, (R)-1-(2-chloropyridin-3-yl)ethyl (4-(5-formamidopyridin-2-yl)-1-methyl-1H-1,2,3-triazol-5-yl)carbamate] | 2180
COC(=O)Nc1ccc(-c2nnn(C)c2NC(=O)O[C@H](C)c2cccnc2Cl)nc1 [Compound 17, (R)-1-(2-chloropyridin-3-yl)ethyl (4-(5-((methoxycarbonyl)amino)pyridin-2-yl)-1-methyl-1H-1,2,3-triazol-5-yl)carbamate] | 29.3
COC(=O)Nc1ccc(-c2nnn(C)c2NC(=O)O[C@H](CF)c2ccccc2)cc1 [Compound 18, (S)-2-fluoro-1-phenylethyl (4-(4-((methoxycarbonyl)amino)phenyl)-1-methyl-1H-1,2,3-triazol-5-yl)carbamate] | 1130
COC(=O)Nc1ccc(-c2nnn(C)c2NC(=O)O[C@H](CF)c2cccc(F)c2)nc1 [Compound 19, (S)-2-fluoro-1-(3-fluorophenyl)ethyl (4-(5-((methoxycarbonyl)amino)pyridin-2-yl)-1-methyl-1H-1,2,3-triazol-5-yl)carbamate] | 276
CCOC(=O)Nc1ccc(-c2nnn(C)c2NC(=O)O[C@H](C)c2cccnc2Cl)nc1 [Compound 21, (R)-1-(2-chloropyridin-3-yl)ethyl (4-(5-((ethoxycarbonyl)amino)pyridin-2-yl)-1-methyl-1H-1,2,3-triazol-5-yl)carbamate] | 39.6
CC(C)COC(=O)Nc1ccc(-c2nnn(C)c2NC(=O)O[C@H](C)c2cccnc2Cl)nc1 [Compound 22, (R)-1-(2-chloropyridin-3-yl)ethyl (4-(5-((isobutoxycarbonyl)amino)pyridin-2-yl)-1-methyl-1H-1,2,3-triazol-5-yl)carbamate] | 43.4
CC(=O)Nc1ccc(-c2nnn(C)c2NC(=O)O[C@H](C)c2cccnc2Cl)nc1 [Compound 23, (R)-1-(2-chloropyridin-3-yl)ethyl (4-(5-acetamidopyridin-2-yl)-1-methyl-1H-1,2,3-triazol-5-yl)carbamate] | 1100
CC(=O)Nc1ccc(-c2nnn(C)c2NC(=O)O[C@H](CF)c2cccc(F)c2)nc1 [Compound 25, (S)-2-fluoro-1-(3-fluorophenyl)ethyl (4-(5-acetamidopyridin-2-yl)-1-methyl-1H-1,2,3-triazol-5-yl)carbamate] | 2270
Cc1cnc(F)cc1C(C)OC(=O)Nc1c(-c2ccc(NC(=O)C3CC(F)(F)C3)cn2)nnn1C (stereo not shown) [Compound 26, 1-(2-fluoro-5-methylpyridin-4-yl)ethyl (4-(5-(3,3-difluorocyclobutane-1-carboxamido)pyridin-2-yl)-1-methyl-1H-1,2,3-triazol-5-yl)carbamate] | 587
Cc1cnc(F)cc1C(C)OC(=O)Nc1c(-c2ccc(NC(=O)C3(C#N)CC3)cn2)nnn1C (stereo not shown) [Compound 27, 1-(2-fluoro-5-methylpyridin-4-yl)ethyl (4-(5-(1-cyanocyclopropane-1-carboxamido)pyridin-2-yl)-1-methyl-1H-1,2,3-triazol-5-yl)carbamate] | 1280
C[C@@H](OC(=O)Nc1c(-c2ccc(NC(=O)C3CC(F)(F)C3)cn2)nnn1C)c1cc(F)cnc1F [Compound 28, (R)-1-(2,5-difluoropyridin-3-yl)ethyl (4-(5-(3,3-difluorocyclobutane-1-carboxamido)pyridin-2-yl)-1-methyl-1H-1,2,3-triazol-5-yl)carbamate] | 29.1
C[C@@H](OC(=O)Nc1c(-c2ccc(NC(=O)c3ccccc3)cn2)nnn1C)c1cccnc1Cl [Compound 29, (R)-1-(2-chloropyridin-3-yl)ethyl (4-(5-benzamidopyridin-2-yl)-1-methyl-1H-1,2,3-triazol-5-yl)carbamate] | 261
CCCC(=O)Nc1ccc(-c2nnn(C)c2NC(=O)O[C@H](C)c2cccnc2Cl)nc1 [Compound 30, (R)-1-(2-chloropyridin-3-yl)ethyl (4-(5-butyramidopyridin-2-yl)-1-methyl-1H-1,2,3-triazol-5-yl)carbamate] | 516
COCC(=O)Nc1ccc(-c2nnn(C)c2NC(=O)O[C@H](C)c2cccnc2Cl)nc1 [Compound 31, (R)-1-(2-chloropyridin-3-yl)ethyl (4-(5-(2-methoxyacetamido)pyridin-2-yl)-1-methyl-1H-1,2,3-triazol-5-yl)carbamate] | 2330
C[C@@H](OC(=O)Nc1c(-c2ccc(NC(=O)C3(C)CC3)cn2)nnn1C)c1cccnc1Cl [Compound 32, (R)-1-(2-chloropyridin-3-yl)ethyl (1-methyl-4-(5-(1-methylcyclopropane-1-carboxamido)pyridin-2-yl)-1H-1,2,3-triazol-5-yl)carbamate] | 799
CCC(=O)Nc1ccc(-c2nnn(C)c2NC(=O)O[C@H](C)c2cccnc2Cl)nc1 [Compound 33, (R)-1-(2-chloropyridin-3-yl)ethyl (1-methyl-4-(5-propionamidopyridin-2-yl)-1H-1,2,3-triazol-5-yl)carbamate] | 1020

SMILES | EC50 [nM]
C[C@@H](OC(=O)Nc1c(-c2ccc(NC(=O)C3CC3)cn2)nnn1C)c1cccnc1Cl [Compound 34, (R)-1-(2-chloropyridin-3-yl)ethyl (4-(5-(cyclopropanecarboxamido)pyridin-2-yl)-1-methyl-1H-1,2,3-triazol-5-yl)carbamate] | 429
C[C@@H](OC(=O)Nc1c(-c2ccc(NC(=O)C3CCC3)cn2)nnn1C)c1cccnc1Cl [Compound 35, (R)-1-(2-chloropyridin-3-yl)ethyl (4-(5-(cyclobutanecarboxamido)pyridin-2-yl)-1-methyl-1H-1,2,3-triazol-5-yl)carbamate] | 103
C[C@@H](OC(=O)Nc1c(-c2ccc(NC(=O)C(F)F)cn2)nnn1C)c1cccnc1Cl [Compound 36, (R)-1-(2-chloropyridin-3-yl)ethyl (4-(5-(2,2-difluoroacetamido)pyridin-2-yl)-1-methyl-1H-1,2,3-triazol-5-yl)carbamate] | 112
C[C@@H](OC(=O)Nc1c(-c2ccc(NC(=O)C3CC(F)(F)C3)cn2)nnn1C)c1cccnc1Cl [Compound 37, (R)-1-(2-chloropyridin-3-yl)ethyl (4-(5-(3,3-difluorocyclobutane-1-carboxamido)pyridin-2-yl)-1-methyl-1H-1,2,3-triazol-5-yl)carbamate] | 54.6
C[C@@H](OC(=O)Nc1c(-c2ccc(NC(=O)C3CNC3)cn2)nnn1C)c1cccnc1Cl [Compound 38, (R)-1-(2-chloropyridin-3-yl)ethyl (4-(5-(azetidine-3-carboxamido)pyridin-2-yl)-1-methyl-1H-1,2,3-triazol-5-yl)carbamate] | 10000
C[C@@H](OC(=O)Nc1c(-c2ccc(NC(=O)C3(C#N)CC3)cn2)nnn1C)c1cc(F)cnc1F [Compound 39, (R)-1-(2,5-difluoropyridin-3-yl)ethyl (4-(5-(1-cyanocyclopropane-1-carboxamido)pyridin-2-yl)-1-methyl-1H-1,2,3-triazol-5-yl)carbamate] | 50.8
C[C@@H](OC(=O)Nc1c(-c2ccc(NC(=O)C3(Cl)CC3)cn2)nnn1C)c1cccnc1Cl [Compound 40, (R)-1-(2-chloropyridin-3-yl)ethyl (4-(5-(1-chlorocyclopropane-1-carboxamido)pyridin-2-yl)-1-methyl-1H-1,2,3-triazol-5-yl)carbamate] | 75.2
C[C@@H](OC(=O)Nc1c(-c2ccc(NC(=O)C3CC4(C3)CC(F)(F)C4)cn2)nnn1C)c1cccnc1Cl [Compound 41, (R)-1-(2-chloropyridin-3-yl)ethyl (4-(5-(6,6-difluorospiro[3.3]heptane-2-carboxamido)pyridin-2-yl)-1-methyl-1H-1,2,3-triazol-5-yl)carbamate] | 38.1
C[C@@H](OC(=O)Nc1c(-c2ccc(NC(=O)C3CC4(COC4)C3)cn2)nnn1C)c1cccnc1Cl [Compound 42, (R)-1-(2-chloropyridin-3-yl)ethyl (4-(5-(2-oxaspiro[3.3]heptane-6-carboxamido)pyridin-2-yl)-1-methyl-1H-1,2,3-triazol-5-yl)carbamate] | 201
C[C@@H](OC(=O)Nc1c(-c2ccc(NC(=O)C3CS(=O)(=O)C3)cn2)nnn1C)c1cccnc1Cl [Compound 43, (R)-1-(2-chloropyridin-3-yl)ethyl (4-(5-(1,1-dioxidothietane-3-carboxamido)pyridin-2-yl)-1-methyl-1H-1,2,3-triazol-5-yl)carbamate] | 497
C[C@@H](OC(=O)Nc1c(-c2ccc(NC(=O)C34CC(C5COC5)(C3)C4)cn2)nnn1C)c1cccnc1Cl [Compound 44, (R)-1-(2-chloropyridin-3-yl)ethyl (1-methyl-4-(5-(3-(oxetan-3-yl)bicyclo[1.1.1]pentane-1-carboxamido)pyridin-2-yl)-1H-1,2,3-triazol-5-yl)carbamate] | 165
C[C@@H](OC(=O)Nc1c(-c2ccc(NC(=O)C34CC(C(F)F)(C3)C4)cn2)nnn1C)c1cccnc1Cl [Compound 45, (R)-1-(2-chloropyridin-3-yl)ethyl (4-(5-(3-(difluoromethyl)bicyclo[1.1.1]pentane-1-carboxamido)pyridin-2-yl)-1-methyl-1H-1,2,3-triazol-5-yl)carbamate] | 40.8
COC12CC(C(=O)Nc3ccc(-c4nnn(C)c4NC(=O)O[C@H](C)c4cccnc4Cl)nc3)(C1)C2 [Compound 46, (R)-1-(2-chloropyridin-3-yl)ethyl (4-(5-(3-methoxybicyclo[1.1.1]pentane-1-carboxamido)pyridin-2-yl)-1-methyl-1H-1,2,3-triazol-5-yl)carbamate] | 29.7
C[C@@H](OC(=O)Nc1c(-c2ccc(NC(=O)C34CC(C)(C3)C4)cn2)nnn1C)c1cccnc1Cl [Compound 47, (R)-1-(2-chloropyridin-3-yl)ethyl (1-methyl-4-(5-(3-methylbicyclo[1.1.1]pentane-1-carboxamido)pyridin-2-yl)-1H-1,2,3-triazol-5-yl)carbamate] | 19.1
C[C@@H](OC(=O)Nc1c(-c2ccc(NC(=O)C3(C(F)(F)F)CCC3)cn2)nnn1C)c1cccnc1Cl [Compound 48, (R)-1-(2-chloropyridin-3-yl)ethyl (1-methyl-4-(5-(1-(trifluoromethyl)cyclobutane-1-carboxamido)pyridin-2-yl)-1H-1,2,3-triazol-5-yl)carbamate] | 22.8
